The source of these data is PMC5906710, “Simvastatin Enhances Activity and Trafficking of α7 Nicotinic Acetylcholine Receptor in Hippocampal Neurons Through PKC and CaMKII Signaling Pathways” (Frontiers in Pharmacology, 2018).

For this assay, the target named is T1, α7 nicotinic acetylcholine receptor (α7nAChR) (Mus musculus, UniProt P49582).
T1 construct: gene Chrna7; native receptor in hippocampal CA1 pyramidal cells (slices)
Description: whole-cell patch-clamp of ACh-evoked currents in mouse hippocampal slices, dose-response. On the technique in general: In patch-clamp work, channel activity is measured electrically.

T1 sequence (P49582 23-502): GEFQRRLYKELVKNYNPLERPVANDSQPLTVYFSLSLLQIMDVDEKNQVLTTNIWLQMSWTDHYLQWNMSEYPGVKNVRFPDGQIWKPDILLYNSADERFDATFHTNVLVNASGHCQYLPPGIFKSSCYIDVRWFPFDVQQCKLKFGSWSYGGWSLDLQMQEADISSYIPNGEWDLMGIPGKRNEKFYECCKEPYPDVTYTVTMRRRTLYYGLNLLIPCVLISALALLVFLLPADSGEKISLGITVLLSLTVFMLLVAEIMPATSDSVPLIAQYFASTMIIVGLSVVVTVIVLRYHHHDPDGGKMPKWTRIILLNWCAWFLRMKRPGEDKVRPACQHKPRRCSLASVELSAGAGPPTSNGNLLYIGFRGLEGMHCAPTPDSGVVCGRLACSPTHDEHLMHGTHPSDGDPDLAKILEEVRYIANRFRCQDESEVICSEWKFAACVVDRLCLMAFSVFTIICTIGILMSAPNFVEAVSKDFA

`CC(=O)OCC[N+](C)(C)C` [ACh, acetylcholine] showed a half-maximal effective concentration (EC50) of 117.1 ± 0.94 µM.

Usually EC50 stands for the concentration that produces a half-maximal response.
